The results in this text go back to ChEMBL document CHEMBL5465560, “Selectivity Literature for EUbOPEN Chemogenomic Library” (2024).

Assay [1] has as its target Serine/threonine-protein kinase pim-3 (Homo sapiens) (UniProt Q86V86). As to the kind of experiment: Selectivity interaction (Kinase panel (Z-LYTE Assay)) EUB0001632a PIM3. The note with it: at 10 µM.
Assay [2] addresses Protein kinase C eta type (Homo sapiens) (UniProt P24723). As to the kind of experiment: Selectivity interaction (KinomeScan (DiscoverX)) EUB0001619a PRKCH. Conditions: at 1 µM.
Assay [3] deals with Calcium/calmodulin-dependent protein kinase type 1G (Homo sapiens) (UniProt Q96NX5). Description: Selectivity interaction (KinomeScan (DiscoverX)) EUB0000607a CAMK1G. Conditions: at 10 µM.
The target in assay [4] is Tyrosine-protein kinase CSK (Homo sapiens) (UniProt P41240). Description: Selectivity interaction (Kinase panel (Invitrogen)) EUB0000639a CSK. Conditions: at 200 nM.
Assay [5] deals with Tyrosine-protein kinase Lyn (Homo sapiens, UniProt P07948). Description: Selectivity interaction (ProQinase) EUB0000171b LYN.
The target in assay [6] is T1, Serine/threonine-protein kinase LATS1 (Homo sapiens) (UniProt O95835).
T1 sequence (whole entry): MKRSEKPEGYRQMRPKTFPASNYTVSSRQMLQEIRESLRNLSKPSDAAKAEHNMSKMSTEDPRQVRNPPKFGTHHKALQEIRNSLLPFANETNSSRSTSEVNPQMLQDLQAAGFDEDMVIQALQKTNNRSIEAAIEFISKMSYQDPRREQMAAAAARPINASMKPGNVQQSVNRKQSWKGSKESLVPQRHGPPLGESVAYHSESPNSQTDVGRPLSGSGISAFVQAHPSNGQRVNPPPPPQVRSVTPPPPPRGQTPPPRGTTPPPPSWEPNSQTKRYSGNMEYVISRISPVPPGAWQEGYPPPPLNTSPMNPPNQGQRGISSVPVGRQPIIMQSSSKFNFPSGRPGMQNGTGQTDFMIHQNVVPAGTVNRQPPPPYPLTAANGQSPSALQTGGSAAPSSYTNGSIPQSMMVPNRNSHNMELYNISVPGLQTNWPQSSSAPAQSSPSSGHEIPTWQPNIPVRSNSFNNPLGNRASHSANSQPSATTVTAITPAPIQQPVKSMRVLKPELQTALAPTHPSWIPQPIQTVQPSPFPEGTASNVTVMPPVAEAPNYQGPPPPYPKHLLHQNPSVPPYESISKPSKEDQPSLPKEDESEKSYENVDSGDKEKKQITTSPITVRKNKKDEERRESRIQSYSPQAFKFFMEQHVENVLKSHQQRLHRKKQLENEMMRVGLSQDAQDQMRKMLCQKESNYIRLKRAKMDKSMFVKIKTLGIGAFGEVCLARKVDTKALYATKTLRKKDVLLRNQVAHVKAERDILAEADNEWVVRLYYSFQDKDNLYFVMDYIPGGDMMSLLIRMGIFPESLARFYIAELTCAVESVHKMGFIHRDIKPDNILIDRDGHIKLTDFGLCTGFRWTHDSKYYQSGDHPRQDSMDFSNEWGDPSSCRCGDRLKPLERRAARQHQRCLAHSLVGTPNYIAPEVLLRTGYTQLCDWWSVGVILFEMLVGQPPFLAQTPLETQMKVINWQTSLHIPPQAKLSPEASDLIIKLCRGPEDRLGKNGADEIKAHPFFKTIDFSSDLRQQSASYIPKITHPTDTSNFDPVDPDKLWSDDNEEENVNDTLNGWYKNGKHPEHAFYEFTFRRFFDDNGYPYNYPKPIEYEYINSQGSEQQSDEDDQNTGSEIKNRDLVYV
Description: Selectivity interaction (KinomeScan (DiscoverX)) EUB0001049a LATS1. Conditions: at 1 µM.

For assay [7], the target named is Hepatocyte growth factor receptor (Homo sapiens, UniProt P08581). The note with it: at 1 µM.
For assay [8], the target named is Ribosomal protein S6 kinase alpha-6 (Homo sapiens, UniProt Q9UK32). Description: Selectivity interaction (Upstate Kinase Profiler service (Millipore)) EUB0000056c RPS6KA6. Conditions: at 1 µM.
In assay [9] the target is T2, Serine/threonine-protein kinase RIO3 (Homo sapiens) (UniProt O14730).
T2 sequence (whole entry): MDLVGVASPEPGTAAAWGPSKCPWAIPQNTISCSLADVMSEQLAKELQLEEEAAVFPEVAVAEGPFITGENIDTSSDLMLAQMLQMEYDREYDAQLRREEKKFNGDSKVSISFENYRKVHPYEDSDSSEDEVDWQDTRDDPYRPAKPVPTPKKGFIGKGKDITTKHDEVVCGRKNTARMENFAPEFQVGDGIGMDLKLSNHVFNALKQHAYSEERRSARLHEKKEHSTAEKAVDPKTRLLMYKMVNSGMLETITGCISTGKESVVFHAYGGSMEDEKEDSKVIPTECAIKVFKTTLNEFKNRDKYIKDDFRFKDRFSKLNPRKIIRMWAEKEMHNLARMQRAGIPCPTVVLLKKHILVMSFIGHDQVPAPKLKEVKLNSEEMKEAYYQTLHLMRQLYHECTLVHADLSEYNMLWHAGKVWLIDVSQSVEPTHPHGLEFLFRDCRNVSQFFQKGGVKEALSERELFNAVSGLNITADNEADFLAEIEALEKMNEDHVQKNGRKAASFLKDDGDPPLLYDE
Description: Selectivity interaction (KinomeScan (DiscoverX)) EUB0000655a RIOK3. Conditions: at 10 µM.

Assay [10] concerns the target Casein kinase II subunit alpha (Homo sapiens, UniProt P68400). Description: Selectivity interaction (KinomeScan (DiscoverX)) EUB0000092b CSNK2A1. Conditions: at 10 µM.
For assay [11], the target named is T3, Tyrosine-protein kinase ITK/TSK (Homo sapiens) (UniProt Q08881).
T3 sequence (whole entry): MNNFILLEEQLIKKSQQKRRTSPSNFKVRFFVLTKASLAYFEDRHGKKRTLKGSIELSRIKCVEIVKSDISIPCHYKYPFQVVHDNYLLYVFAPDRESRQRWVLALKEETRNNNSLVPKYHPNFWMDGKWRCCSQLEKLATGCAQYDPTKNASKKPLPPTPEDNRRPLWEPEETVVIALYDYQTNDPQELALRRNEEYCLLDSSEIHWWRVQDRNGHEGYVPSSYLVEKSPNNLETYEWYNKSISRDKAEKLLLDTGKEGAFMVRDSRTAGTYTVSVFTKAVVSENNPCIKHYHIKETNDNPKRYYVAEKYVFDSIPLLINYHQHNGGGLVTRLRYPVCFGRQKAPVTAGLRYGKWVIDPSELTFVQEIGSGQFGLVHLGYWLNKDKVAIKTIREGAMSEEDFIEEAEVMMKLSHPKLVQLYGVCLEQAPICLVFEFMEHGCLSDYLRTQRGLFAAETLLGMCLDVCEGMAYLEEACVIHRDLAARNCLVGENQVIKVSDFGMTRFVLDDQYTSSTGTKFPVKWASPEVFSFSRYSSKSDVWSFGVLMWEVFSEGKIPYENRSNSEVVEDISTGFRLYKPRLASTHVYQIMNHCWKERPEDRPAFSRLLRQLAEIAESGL
As to the kind of experiment: Selectivity interaction (KinomeScan (DiscoverX)) EUB0001079a ITK. The note with it: at 1 µM.

Assay [12] concerns the target T1, Serine/threonine-protein kinase LATS1 (Homo sapiens). Description: Selectivity interaction (KinomeScan (DiscoverX)) EUB0000229b LATS1. The note with it: at 10 µM.

Tyrosine-protein kinase Lyn, sequence (P07948 2-512 limits assumed): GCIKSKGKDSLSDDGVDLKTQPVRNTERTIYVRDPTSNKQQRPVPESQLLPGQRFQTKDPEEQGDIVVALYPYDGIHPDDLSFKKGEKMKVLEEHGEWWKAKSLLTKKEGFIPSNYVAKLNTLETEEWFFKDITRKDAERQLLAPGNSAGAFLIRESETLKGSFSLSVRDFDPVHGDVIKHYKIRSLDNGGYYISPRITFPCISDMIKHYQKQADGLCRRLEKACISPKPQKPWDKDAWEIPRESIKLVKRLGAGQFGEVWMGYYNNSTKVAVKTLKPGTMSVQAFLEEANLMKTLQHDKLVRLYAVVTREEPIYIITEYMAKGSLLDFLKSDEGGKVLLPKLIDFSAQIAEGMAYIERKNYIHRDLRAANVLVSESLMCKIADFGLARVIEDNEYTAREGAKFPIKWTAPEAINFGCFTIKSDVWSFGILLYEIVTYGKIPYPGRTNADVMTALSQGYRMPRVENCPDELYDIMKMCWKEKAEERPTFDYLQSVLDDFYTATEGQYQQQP
Hepatocyte growth factor receptor, sequence (P08581 whole entry): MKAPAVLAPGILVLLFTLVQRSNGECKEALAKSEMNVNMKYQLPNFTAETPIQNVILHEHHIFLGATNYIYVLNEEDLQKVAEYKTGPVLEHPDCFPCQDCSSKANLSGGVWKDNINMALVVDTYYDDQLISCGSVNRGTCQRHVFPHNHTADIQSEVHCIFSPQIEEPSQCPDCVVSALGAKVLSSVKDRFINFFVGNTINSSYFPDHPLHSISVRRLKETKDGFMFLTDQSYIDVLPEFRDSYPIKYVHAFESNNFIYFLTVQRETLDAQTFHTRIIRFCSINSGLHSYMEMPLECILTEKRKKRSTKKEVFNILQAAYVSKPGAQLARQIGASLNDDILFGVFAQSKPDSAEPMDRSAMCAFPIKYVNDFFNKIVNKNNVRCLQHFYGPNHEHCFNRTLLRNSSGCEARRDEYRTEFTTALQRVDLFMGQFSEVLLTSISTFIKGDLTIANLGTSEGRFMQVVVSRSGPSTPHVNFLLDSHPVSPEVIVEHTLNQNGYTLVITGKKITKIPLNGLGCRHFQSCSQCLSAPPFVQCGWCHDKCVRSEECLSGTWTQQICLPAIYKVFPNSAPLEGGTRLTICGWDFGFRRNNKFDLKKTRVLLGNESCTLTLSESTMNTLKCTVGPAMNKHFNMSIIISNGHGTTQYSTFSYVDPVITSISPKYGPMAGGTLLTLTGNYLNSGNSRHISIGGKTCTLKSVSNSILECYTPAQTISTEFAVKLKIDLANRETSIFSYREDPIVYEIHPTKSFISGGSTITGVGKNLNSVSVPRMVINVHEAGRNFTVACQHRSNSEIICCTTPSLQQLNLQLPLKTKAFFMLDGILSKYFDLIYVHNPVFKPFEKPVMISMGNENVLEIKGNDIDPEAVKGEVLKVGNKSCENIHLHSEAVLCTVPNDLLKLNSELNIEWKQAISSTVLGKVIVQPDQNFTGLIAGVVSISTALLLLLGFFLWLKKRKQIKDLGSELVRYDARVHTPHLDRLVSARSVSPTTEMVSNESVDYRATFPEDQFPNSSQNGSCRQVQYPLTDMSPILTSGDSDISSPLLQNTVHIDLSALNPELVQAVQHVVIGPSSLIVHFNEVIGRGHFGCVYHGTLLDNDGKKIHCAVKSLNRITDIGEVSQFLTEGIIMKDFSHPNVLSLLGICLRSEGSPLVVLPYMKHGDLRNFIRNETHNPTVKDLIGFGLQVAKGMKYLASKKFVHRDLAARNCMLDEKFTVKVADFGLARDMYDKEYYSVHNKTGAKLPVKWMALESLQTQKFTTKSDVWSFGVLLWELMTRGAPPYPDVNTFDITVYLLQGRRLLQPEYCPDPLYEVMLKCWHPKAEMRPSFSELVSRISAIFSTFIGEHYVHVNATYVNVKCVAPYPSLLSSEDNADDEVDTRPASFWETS
Casein kinase II subunit alpha, sequence (P68400 whole entry, looked up): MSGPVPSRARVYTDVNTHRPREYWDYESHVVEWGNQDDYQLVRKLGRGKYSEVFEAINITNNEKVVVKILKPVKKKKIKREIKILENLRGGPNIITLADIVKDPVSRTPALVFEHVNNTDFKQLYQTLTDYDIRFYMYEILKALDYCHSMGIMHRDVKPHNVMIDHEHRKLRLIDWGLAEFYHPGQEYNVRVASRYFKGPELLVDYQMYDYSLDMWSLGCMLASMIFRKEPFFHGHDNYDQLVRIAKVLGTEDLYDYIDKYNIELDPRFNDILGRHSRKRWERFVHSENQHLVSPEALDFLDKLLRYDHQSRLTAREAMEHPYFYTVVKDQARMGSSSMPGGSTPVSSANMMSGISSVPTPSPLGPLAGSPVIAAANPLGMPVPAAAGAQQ
Protein kinase C eta type (Homo sapiens), sequence (P24723 whole entry): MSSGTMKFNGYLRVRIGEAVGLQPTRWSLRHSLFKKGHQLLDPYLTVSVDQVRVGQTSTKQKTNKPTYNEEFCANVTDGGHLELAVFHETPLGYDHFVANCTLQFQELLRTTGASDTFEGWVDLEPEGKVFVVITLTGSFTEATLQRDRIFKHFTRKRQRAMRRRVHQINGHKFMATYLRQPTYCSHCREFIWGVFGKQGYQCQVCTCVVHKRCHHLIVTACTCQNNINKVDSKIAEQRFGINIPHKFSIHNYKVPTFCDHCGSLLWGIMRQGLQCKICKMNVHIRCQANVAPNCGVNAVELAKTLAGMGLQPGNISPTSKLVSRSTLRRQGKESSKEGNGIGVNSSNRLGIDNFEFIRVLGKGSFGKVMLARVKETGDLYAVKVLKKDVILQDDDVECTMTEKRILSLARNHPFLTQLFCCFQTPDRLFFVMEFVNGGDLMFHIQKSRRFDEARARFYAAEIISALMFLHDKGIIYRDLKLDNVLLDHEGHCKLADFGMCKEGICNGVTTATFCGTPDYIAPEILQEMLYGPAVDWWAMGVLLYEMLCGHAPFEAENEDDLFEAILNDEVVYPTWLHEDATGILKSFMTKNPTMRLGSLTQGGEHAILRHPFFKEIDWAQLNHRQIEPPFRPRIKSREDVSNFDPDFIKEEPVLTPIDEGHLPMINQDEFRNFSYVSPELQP
Tyrosine-protein kinase CSK (Homo sapiens), sequence (P41240 2-450 limits assumed): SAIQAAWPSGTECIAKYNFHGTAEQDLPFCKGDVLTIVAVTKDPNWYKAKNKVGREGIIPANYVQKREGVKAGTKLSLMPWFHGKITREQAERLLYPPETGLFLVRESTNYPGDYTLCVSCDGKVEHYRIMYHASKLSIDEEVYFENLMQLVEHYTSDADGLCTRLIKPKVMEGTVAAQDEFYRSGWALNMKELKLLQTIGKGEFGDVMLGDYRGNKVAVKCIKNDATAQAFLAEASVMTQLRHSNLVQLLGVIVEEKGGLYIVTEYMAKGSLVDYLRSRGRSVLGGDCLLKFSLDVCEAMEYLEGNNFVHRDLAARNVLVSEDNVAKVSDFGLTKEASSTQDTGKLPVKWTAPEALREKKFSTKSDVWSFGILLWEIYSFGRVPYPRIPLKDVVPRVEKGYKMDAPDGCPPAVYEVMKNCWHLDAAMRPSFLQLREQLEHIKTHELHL
Calcium/calmodulin-dependent protein kinase type 1G (Homo sapiens), sequence (Q96NX5 whole entry): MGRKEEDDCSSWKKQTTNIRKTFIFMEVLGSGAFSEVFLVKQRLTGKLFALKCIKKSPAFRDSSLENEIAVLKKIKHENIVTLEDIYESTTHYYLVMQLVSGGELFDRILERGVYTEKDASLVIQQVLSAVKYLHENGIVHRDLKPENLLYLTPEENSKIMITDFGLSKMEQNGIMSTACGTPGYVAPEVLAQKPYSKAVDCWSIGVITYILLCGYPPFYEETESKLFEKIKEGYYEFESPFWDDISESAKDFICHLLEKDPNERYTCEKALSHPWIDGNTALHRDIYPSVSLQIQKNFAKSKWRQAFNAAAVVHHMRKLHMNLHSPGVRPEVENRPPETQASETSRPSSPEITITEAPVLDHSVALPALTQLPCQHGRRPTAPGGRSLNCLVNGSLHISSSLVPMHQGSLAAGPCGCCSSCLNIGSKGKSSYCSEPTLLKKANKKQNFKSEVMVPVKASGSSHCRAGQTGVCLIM
Ribosomal protein S6 kinase alpha-6, sequence (Q9UK32 whole entry): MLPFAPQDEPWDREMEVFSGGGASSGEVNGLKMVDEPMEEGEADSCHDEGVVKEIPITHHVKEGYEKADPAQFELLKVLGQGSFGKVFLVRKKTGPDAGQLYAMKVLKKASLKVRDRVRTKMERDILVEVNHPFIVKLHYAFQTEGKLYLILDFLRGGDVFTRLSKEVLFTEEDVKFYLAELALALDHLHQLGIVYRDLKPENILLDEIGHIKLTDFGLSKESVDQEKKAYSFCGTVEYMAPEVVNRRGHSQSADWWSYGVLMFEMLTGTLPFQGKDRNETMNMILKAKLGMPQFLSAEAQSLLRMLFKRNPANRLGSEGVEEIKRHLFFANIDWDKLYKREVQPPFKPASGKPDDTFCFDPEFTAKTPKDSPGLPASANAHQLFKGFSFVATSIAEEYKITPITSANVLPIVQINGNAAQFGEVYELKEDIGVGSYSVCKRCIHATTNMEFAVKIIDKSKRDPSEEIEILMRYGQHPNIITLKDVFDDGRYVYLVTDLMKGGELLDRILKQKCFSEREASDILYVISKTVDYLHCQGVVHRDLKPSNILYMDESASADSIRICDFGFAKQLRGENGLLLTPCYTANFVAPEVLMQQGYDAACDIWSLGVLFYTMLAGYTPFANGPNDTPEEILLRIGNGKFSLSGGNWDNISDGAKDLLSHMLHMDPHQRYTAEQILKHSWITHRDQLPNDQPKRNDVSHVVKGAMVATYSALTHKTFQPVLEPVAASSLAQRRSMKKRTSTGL

For the compound `Cn1cc(-n2cnc3c(NCc4nc5cc(Cl)c(Cl)cc5[nH]4)nc(N4CCOCC4)nc32)cn1`, the % of control in assay [1] was -7.71%. `N#Cc1cccc(-c2c[nH]c3ncnc(N4CCOCC4)c23)c1`: the % of control in assay [2] was determined as 41%. `CNC(=O)Nc1ccc(-c2nc(N3CC4CCC(C3)O4)c3cnn(C4CCC5(CC4)OCCO5)c3n2)cc1`: the % of control in assay [3] stood at 100%. On to `CC[C@@H]1[C@H](F)C(=O)N[C@@H]1COc1nccc2cc(C(N)=O)c(OC)cc12` [ZIMLOVISERTIB], for which the % of inhibition in assay [4] was 11.4%. Regarding `C=CC(=O)Nc1cccc(C(=O)Nc2ccc(Nc3cc(-c4[nH]c(SC)nc4C)ccn3)cc2)c1`, the % of control in assay [5] (at 1 µM) was found to be 99%; in assay [5] (at 5 µM) it was 94%. On to `COc1cc(Nc2nc(C)cc(-c3cnn4nc(OC)ccc34)n2)cc(C(F)(F)F)c1`, for which the % of control in [6] amounted to 100%. Take `Cc1ccc(-c2ccc3c(ccc4sc5c(c43)NC[C@@H](C)NC5=O)n2)cn1`: the % of inhibition in assay [7] was determined as 41%; in assay [8] it was 38%. `CN(C)CCOc1ccc(-c2nc(-c3ccncc3)c(-c3ccc4c(c3)CC/C4=N\O)[nH]2)cc1`: the % of control in assay [9] is 82%. For the compound `CCC(=O)N1CCN(c2ccc(-n3c(=O)ccc4cnc5ccc(-c6cnc7ccccc7c6)cc5c43)cc2C(F)(F)F)CC1`, the % of control in [10] amounted to 94%. Consider `Nc1cnc(N2CCc3cc(S(=O)(=O)Nc4c(F)cc(Cl)cc4F)cc(N4CCCC4=O)c32)nc1` [TP-020n], for which the % of control in assay [11] was 100%.

On to `COc1cc(N(C)c2ccnc3ccc(C(F)(F)F)cc23)cc(OC)c1OC`, for which the % binding in assay [12] was found to be 100%.
